From patent publication US12162861B2, “Dopamine D3 receptor selective antagonists/partial agonists; method of making; and use thereof” (THE UNITED STATES OF AMERICA, AS REPRESENTED BY THE …, priority 2016, dated 2024)

Columns and labels:
[1] = Sucrose self-administration; assay type: in vivo; details: pretreatment (±)-29 15 and 25 mg/kg, (±)-19 1 and 5 mg/kg
human D3R = target: T1, human D3R (Homo sapiens, UniProt P35462); assay: Radioligand competition binding, [3H]N-methylspiperone, D3R; details: Table 1A; for D4/D3: ratio of Ki values; for D3R K ± SEM (nM): HEK 293 cells transfected with hD3R, [3H]N-methylspiperone
T1 construct: expressed in transfected cells; host or cells: HEK293
T1 sequence (P35462 whole entry): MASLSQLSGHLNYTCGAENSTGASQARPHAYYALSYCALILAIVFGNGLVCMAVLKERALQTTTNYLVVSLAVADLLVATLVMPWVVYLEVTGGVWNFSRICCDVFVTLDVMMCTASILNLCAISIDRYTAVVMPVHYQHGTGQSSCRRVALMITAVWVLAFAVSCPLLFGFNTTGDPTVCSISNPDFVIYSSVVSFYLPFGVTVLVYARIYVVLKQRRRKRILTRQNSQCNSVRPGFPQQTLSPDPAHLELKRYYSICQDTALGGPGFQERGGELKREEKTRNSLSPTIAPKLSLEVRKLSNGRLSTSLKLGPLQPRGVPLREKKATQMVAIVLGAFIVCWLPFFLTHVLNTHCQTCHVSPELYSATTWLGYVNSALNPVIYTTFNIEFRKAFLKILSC
Procedure: Binding at dopamine D2-like receptors was determined using previously described methods. […] Upon reaching 80-90% confluence, cells were harvested using pre-mixed Earle's Balanced Salt Solution (EBSS) with 5 μM EDTA (Life Technologies) and centrifuged at 3000 rpm for 10 min at 21° C. The supernatant was removed and the pellet was resuspended in 10 mL hypotonic lysis buffer (5 mM MgCl2·6H2O, 5 mM Tris, pH 7.4 at 4° C.) and centrifuged at 20,000 rpm for 30 min at 4° C. The pellet was then resuspended in fresh EBSS buffer made from 8.7 g/L Earle's Balanced Salts without phenol red (US Biological, Salem, MA), 2.2 g/L sodium bicarbonate, pH to 7.4. A Bradford protein assay (Bio-Rad, Hercules, CA) was used to determine the protein concentration and membranes were diluted to 500 μg/mL and stored in a −80° C. freezer for later use.
Radioligand competition binding experiments were conducted using thawed membranes. Test compounds were freshly dissolved in 30% DMSO and 70% H2O to a stock concentration of 100 μM. To assist the solubilization of free-base compounds, 10 μl of glacial acetic acid was added along with the DMSO. Each test compound was then diluted into 13 half-log serial dilutions using 30% DMSO vehicle; final test concentrations ranged from 10 μM to 10 pM. Previously frozen membranes were diluted in fresh EBSS to a 100 μg/mL (for hD2R or hD3R) or 200 μg/mL (hD4R) stock for binding. Radioligand competition experiments were conducted in glass tubes containing 300 μl fresh EBSS buffer with 0.2 mM sodium metabisulfite, 50 μl of diluted test compound, 100 μl of membranes (10 μg total protein for hD2R or hD3R, 20 μg total protein for hD4R), and 50 μl of [^3H]N-methylspiperone (0.4 nM final concentration; Perkin Elmer). Nonspecific binding was determined using 10 μM butaclamol (Sigma-Aldrich, St. Louis, MO) and total binding was determined with 30% DMSO vehicle. All compound dilutions were tested in triplicate and the reaction incubated for one hour at room temperature. The reaction was terminated by filtration through Whatman GF/B filters, presoaked for one hour in 0.5% polyethylenimine, using a Brandel R48 filtering manifold (Brandel Instruments, Gaithersburg, MD). The filters were washed 3 times with 3 mL of ice cold EBSS buffer and transferred to scintillation vials. […] IC50 values for each compound were determined from dose-response curves and Ki values were calculated using the Cheng-Prusoff equation; these analyses were performed using GraphPad Prism version 5.00 for Windows (GraphPad Software, San Diego, CA). Reported Ki values were determined from least three independent experiments.

human D2R = target: T2, human D2R (Homo sapiens, UniProt P14416); assay: Radioligand competition binding, [3H]N-methylspiperone, D2R; details: Table 1A; ratio of Ki values
T2 construct: expressed in transfected cells; host or cells: HEK293
T2 sequence (P14416 whole entry): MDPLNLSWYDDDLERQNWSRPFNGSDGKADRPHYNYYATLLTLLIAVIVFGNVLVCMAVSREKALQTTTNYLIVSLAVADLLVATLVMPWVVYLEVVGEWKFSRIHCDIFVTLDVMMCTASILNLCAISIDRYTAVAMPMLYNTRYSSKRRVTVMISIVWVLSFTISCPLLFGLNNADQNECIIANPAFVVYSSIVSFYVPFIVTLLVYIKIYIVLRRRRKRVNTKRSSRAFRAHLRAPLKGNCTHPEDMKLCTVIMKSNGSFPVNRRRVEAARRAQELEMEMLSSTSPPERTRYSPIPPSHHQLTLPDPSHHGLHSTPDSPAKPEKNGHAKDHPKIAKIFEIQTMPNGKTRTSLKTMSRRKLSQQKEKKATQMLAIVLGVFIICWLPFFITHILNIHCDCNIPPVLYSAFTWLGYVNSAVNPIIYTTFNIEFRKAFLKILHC
Procedure: Binding at dopamine D2-like receptors was determined using previously described methods. (Chen et al. “Tranylcypromine substituted cis-hydroxycyclobutylnaphthamides as potent and selective dopamine D(3) receptor antagonists.” J. Med. Chem. 2014, 57, 4962-4968) Membranes were prepared from HEK293 cells expressing human D2R, D3R or D4R, grown in a 50:50 mix of DMEM and Ham's F12 culture media, supplemented with 20 mM HEPES, 2 mM L-glutamine, 0.1 mM non-essential amino acids, 1× antibiotic/antimycotic, 10% heat-inactivated fetal bovine serum, and 200 μg/mL hygromycin (Life Technologies, Grand Island, NY) and kept in an incubator at 37° C. and 5% CO2. Upon reaching 80-90% confluence, cells were harvested using pre-mixed Earle's Balanced Salt Solution (EBSS) with 5 μM EDTA (Life Technologies) and centrifuged at 3000 rpm for 10 min at 21° C. The supernatant was removed and the pellet was resuspended in 10 mL hypotonic lysis buffer (5 mM MgCl2·6H2O, 5 mM Tris, pH 7.4 at 4° C.) and centrifuged at 20,000 rpm for 30 min at 4° C. The pellet was then resuspended in fresh EBSS buffer made from 8.7 g/L Earle's Balanced Salts without phenol red (US Biological, Salem, MA), 2.2 g/L sodium bicarbonate, pH to 7.4. A Bradford protein assay (Bio-Rad, Hercules, CA) was used to determine the protein concentration and membranes were diluted to 500 μg/mL and stored in a −80° C. freezer for later use.
Radioligand competition binding experiments were conducted using thawed membranes. Test compounds were freshly dissolved in 30% DMSO and 70% H2O to a stock concentration of 100 μM. To assist the solubilization of free-base compounds, 10 μl of glacial acetic acid was added along with the DMSO. Each test compound was then diluted into 13 half-log serial dilutions using 30% DMSO vehicle; final test concentrations ranged from 10 μM to 10 pM. Previously frozen membranes were diluted in fresh EBSS to a 100 μg/mL (for hD2R or hD3R) or 200 μg/mL (hD4R) stock for binding. Radioligand competition experiments were conducted in glass tubes containing 300 μl fresh EBSS buffer with 0.2 mM sodium metabisulfite, 50 μl of diluted test compound, 100 μl of membranes (10 μg total protein for hD2R or hD3R, 20 μg total protein for hD4R), and 50 μl of [^3H]N-methylspiperone (0.4 nM final concentration; Perkin Elmer). Nonspecific binding was determined using 10 μM butaclamol (Sigma-Aldrich, St. Louis, MO) and total binding was determined with 30% DMSO vehicle. All compound dilutions were tested in triplicate and the reaction incubated for one hour at room temperature. The reaction was terminated by filtration through Whatman GF/B filters, presoaked for one hour in 0.5% polyethylenimine, using a Brandel R48 filtering manifold (Brandel Instruments, Gaithersburg, MD). The filters were washed 3 times with 3 mL of ice cold EBSS buffer and transferred to scintillation vials. 3 mL CytoScint liquid scintillation cocktail (MP Biomedicals, Solon, OH) was added and vials were counted using a Perkin Elmer Tri-Carb 2910 TR liquid scintillation counter (Waltham, MA). IC50 values for each compound were determined from dose-response curves and Ki values were calculated using the Cheng-Prusoff equation; these analyses were performed using GraphPad Prism version 5.00 for Windows (GraphPad Software, San Diego, CA). Reported Ki values were determined from least three independent experiments.

human dopamine D3R = target: T3, human dopamine D3R (Homo sapiens, UniProt P35462); assay: D3R mitogenesis assay in CHO cells; assay type: cell-based; details: stimulation of mitogenesis, CHO cells with human D3R; read-out: Agonist EC50 ± SEM
T3 construct: expressed in transfected cells; host or cells: CHO
T3 sequence (P35462 whole entry): as the sequence (P35462 whole entry) above

Structure (SMILES) | D4/D3 (human D3R) | D4/D2 (human D2R) | D3R K ± SEM (nM) (human D3R) | EC50 (human dopamine D3R) [µM] | sucrose self-administration [1]
CCc1cccc(N2CCN(CC(O)CCNC(=O)c3cc4ccccc4[nH]3)CC2)c1Cl (racemic) [Compound 19, N-(4-(4-(2-chloro-3-ethylphenyl)piperazin-1-yl)-3-hydroxybutyl)-1H-indole-2-carboxamide] | – | – | – | – | no significant effects on sucrose self-administration
CCc1cccc(N2CCN(CCCCNC(=O)c3cc4ccccc4o3)CC2)c1Cl [Compound 20, N-(4-(4-(2-Chloro-3-ethylphenyl)piperazin-1-yl)butyl)benzofuran-2-carboxamide] | 2327 | 56 | subnanomolar binding affinities | – | –
CCc1cccc(N2CCN(CC(O)CCNC(=O)c3cc4ccccc4o3)CC2)c1Cl (stereo not drawn) [Compound 21, N-(4-(4-(2-Chloro-3-ethylphenyl)piperazin-1-yl)-3-hydroxybutyl)benzofuran-2-carboxamide] | 2417 | 15 | subnanomolar binding affinities | – | –
CCc1cccc(N2CCN(CC(O)CCNC(=O)c3cn4ccccc4n3)CC2)c1Cl (stereo not drawn) [Compound 23, N-(4-(4-(2-Chloro-3-ethylphenyl)piperazin-1-yl)-3-hydroxybutyl)imidazo[1,2-a]pyridine-2-carboxamide] | 2671 | 58.5 | – | – | –
CCc1cc(Cl)c(OC)c(N2CCN(CCCCNC(=O)c3cc4ccccc4[nH]3)CC2)c1 [Compound 28, N-(4-(4-(3-Chloro-5-ethyl-2-methoxyphenyl)piperazin-1-yl)butyl)-1H-indole-2-carboxamide] | 3065 | 38 | – | > 8.3 | –
CCc1cc(Cl)c(OC)c(N2CCN(CCCCNC(=O)c3cc4ccccc4o3)CC2)c1 [Compound 30, N-(4-(4-(3-Chloro-5-ethyl-2-methoxyphenyl)piperazin-1-yl)butyl)benzofuran-2-carboxamide] | 224 | 5.2 | – | > 6.6 | –
CCc1cc(Cl)c(OC)c(N2CCN(CC(O)CCNC(=O)c3cc4ccccc4o3)CC2)c1 (stereo not drawn) [Compound 31, N-(4-(4-(3-Chloro-5-ethyl-2-methoxyphenyl)piperazin-1-yl)-3-hydroxybutyl)benzofuran-2-carboxamide] | 146 | 3.3 | – | – | –
CCc1cccc(N2CCN(C/C=C/CNC(=O)c3nc(C)c[nH]3)CC2)c1Cl [Compound 35, (E)-N-(4-(4-(2-Chloro-3-ethylphenyl)piperazin-1-yl)but-2-en-1-yl)-4-methyl-1H-imidazole-2-carboxamide] | 393 | 31.2 | – | – | –
CCc1cccc(N2CCN(CCC(O)CNC(=O)c3cc4ccccc4[nH]3)CC2)c1Cl (stereo not drawn) [Compound 40, N-(4-(4-(2-Chloro-3-ethylphenyl)piperazin-1-yl)-2-hydroxybutyl)-1H-indole-2-carboxamide] | 1525 | 44.7 | – | – | –

Further lines, with some results ahead:

D4/D3 (human D3R) | D4/D2 (human D2R) | D3R K ± SEM (nM) (human D3R) | EC50 (human dopamine D3R) [µM] | Structure (SMILES) | sucrose self-administration [1]
2352 | 61 | – | – | CCc1cccc(N2CCN(CCCCNC(=O)c3cc4ccccc4[nH]3)CC2)c1Cl [Compound 18, N-(4-(4-(2-Chloro-3-ethylphenyl)piperazin-1-yl)butyl)-1H-indole-2-carboxamide] | –
2482 | 145.2 | – | – | CCc1cccc(N2CCN(CCCCNC(=O)c3cn4ccccc4n3)CC2)c1Cl [Compound 22, N-(4-(4-(2-chloro-3-ethylphenyl)piperazin-1-yl)butyl)imidazo[1,2-a]pyridine-2-carboxamide] | –
152 | 30.8 | – | – | CCc1cccc(N2CCN(CCCCNC(=O)c3c(C)nc4sccn34)CC2)c1Cl [Compound 24, N-(4-(4-(2-chloro-3-ethylphenyl)piperazin-1-yl)butyl)-6-methylimidazo[2,1-b]thiazole-5-carboxamide] | –
439 | 40.0 | – | – | CCc1c[nH]c(C(=O)NCCCCN2CCN(c3cccc(CC)c3Cl)CC2)n1 [Compound 25, N-(4-(4-(2-Chloro-3-ethylphenyl)piperazin-1-yl)butyl)-4-ethyl-1H-imidazole-2-carboxamide] | –
853 | 43.4 | – | – | CCc1cccc(N2CCN(CCCCNC(=O)c3nc(C)c[nH]3)CC2)c1Cl [Compound 26, N-(4-(4-(2-Chloro-3-ethylphenyl)piperazin-1-yl)butyl)-4-methyl-1H-imidazole-2-carboxamide] | –
175 | 13.1 | – | – | CCc1cccc(N2CCN(CC(O)CCNC(=O)c3nc(C)c[nH]3)CC2)c1Cl (stereo not drawn) [Compound 27, N-(4-(4-(2-Chloro-3-ethylphenyl)piperazin-1-yl)-3-hydroxybutyl)-4-methyl-1H-imidazole-2-carboxamide] | –
